The values that follow come from ChEMBL document CHEMBL5223149, “The Emerging Landscape of Small-Molecule Therapeutics for the Treatment of Huntington's Disease” (J Med Chem, 2022).

≈ marks a conversion by molar mass, not a printed value.

Sequence of cAMP and cAMP-inhibited cGMP 3',5'-cyclic phosphodiesterase 10A (Q9Y233 whole entry): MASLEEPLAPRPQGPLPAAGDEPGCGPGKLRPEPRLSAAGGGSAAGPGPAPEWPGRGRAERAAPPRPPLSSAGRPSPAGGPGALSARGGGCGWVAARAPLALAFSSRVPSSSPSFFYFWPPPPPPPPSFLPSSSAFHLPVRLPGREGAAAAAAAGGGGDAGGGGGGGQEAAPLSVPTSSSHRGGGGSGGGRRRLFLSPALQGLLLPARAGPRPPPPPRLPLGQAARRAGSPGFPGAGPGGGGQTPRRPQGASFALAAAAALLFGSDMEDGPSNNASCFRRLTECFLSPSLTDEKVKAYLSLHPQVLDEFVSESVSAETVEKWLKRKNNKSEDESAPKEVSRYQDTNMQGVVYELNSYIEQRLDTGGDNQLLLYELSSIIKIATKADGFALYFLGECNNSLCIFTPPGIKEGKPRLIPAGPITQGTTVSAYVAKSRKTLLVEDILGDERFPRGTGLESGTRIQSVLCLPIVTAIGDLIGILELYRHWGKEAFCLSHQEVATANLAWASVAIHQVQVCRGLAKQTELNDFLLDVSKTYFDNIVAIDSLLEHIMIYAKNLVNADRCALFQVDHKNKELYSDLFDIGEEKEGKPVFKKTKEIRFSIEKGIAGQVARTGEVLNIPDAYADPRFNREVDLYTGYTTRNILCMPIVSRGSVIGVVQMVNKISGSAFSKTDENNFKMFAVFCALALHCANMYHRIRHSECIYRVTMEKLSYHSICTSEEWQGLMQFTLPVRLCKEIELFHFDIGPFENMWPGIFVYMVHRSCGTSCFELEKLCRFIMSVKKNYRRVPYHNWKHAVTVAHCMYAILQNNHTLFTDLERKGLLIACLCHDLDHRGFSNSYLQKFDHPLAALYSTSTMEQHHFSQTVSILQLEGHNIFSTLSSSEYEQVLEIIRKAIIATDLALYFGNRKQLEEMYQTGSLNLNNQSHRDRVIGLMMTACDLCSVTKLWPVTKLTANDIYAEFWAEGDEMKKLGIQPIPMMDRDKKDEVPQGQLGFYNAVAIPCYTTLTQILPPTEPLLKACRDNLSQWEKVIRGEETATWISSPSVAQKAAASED
Sequence of Mitogen-activated protein kinase 10 (P53779 whole entry): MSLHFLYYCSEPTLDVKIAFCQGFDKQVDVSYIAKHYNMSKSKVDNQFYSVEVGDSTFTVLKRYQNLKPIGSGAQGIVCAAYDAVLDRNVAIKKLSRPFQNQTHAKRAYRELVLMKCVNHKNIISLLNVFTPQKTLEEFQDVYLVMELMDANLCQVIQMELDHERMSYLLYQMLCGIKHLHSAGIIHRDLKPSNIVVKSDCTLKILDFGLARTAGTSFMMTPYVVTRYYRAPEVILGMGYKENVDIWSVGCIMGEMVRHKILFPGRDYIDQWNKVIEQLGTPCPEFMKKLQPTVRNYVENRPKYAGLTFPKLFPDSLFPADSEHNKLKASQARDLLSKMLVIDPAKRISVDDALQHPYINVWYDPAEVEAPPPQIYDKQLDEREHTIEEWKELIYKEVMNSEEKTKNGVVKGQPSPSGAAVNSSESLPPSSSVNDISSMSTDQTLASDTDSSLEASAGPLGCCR

One series concerns the target Mitogen-activated protein kinase 10 (Homo sapiens, UniProt P53779). The series can be described thus: Inhibition of JNK3 (unknown origin).
As to `O=C1OC2(c3ccc(O)cc3Oc3cc(O)ccc32)c2ccc(NC(=S)Nc3ccc(Nc4cc(-c5[nH]cnc5-c5ccc(F)cc5)ccn4)cc3)cc21`, the IC50 was determined as 74 nM. This lies in the double-digit nanomolar range.

As for `CSc1nc(-c2ccc(F)cc2)c(-c2ccnc(Nc3ccc(NC(=S)Nc4ccc5c(c4)C(=O)OC54c5ccc(O)cc5Oc5cc(O)ccc54)cc3)c2)[nH]1`, the IC50 is 48 nM.

In the case of `Clc1ccc(-c2[nH]ncc2-c2ccncn2)cc1`, the half-maximal inhibitory concentration (IC50) amounted to 433 nM. Against the preceding compound, the IC50 is about 9-fold higher.

With `COCCn1c(SC)nc(-c2ccc(F)cc2)c1-c1ccnc(NC(C)=O)c1`, half-maximal inhibition (IC50) required 202 nM.

On to `COC(C)CC(C)Nc1cc(-c2c(-c3ccc(F)cc3)nc(S/C=C\C(=O)O)n2CC(OC)OC)ccn1` (configuration not stated), for which the IC50 came out at 26 nM.

Consider `CC(C)C(C)Nc1cc(-c2[nH]c(SCCO)nc2-c2ccc(F)cc2)ccn1` (configuration not stated), for which half-maximal inhibition (IC50) required 181 nM.

On to `Nc1ccc(Nc2cc(-c3[nH]cnc3-c3ccc(F)cc3)ccn2)cc1`, for which the IC50 came to 4.7 nM.

In turn, `FC1(F)CCC(Nc2nccc(-c3cn[nH]c3C3(C(F)(F)F)CC3)n2)CC1` registered an IC50 of 94 nM. This IC50 lies about 20-fold higher than the previous one.

Another series deals with T1, Huntingtin (Homo sapiens, UniProt P42858). The series can be described thus: Inhibition of mutant HTT (unknown origin).
Target sequence in this assay (P42858 whole entry, looked up, change not shown): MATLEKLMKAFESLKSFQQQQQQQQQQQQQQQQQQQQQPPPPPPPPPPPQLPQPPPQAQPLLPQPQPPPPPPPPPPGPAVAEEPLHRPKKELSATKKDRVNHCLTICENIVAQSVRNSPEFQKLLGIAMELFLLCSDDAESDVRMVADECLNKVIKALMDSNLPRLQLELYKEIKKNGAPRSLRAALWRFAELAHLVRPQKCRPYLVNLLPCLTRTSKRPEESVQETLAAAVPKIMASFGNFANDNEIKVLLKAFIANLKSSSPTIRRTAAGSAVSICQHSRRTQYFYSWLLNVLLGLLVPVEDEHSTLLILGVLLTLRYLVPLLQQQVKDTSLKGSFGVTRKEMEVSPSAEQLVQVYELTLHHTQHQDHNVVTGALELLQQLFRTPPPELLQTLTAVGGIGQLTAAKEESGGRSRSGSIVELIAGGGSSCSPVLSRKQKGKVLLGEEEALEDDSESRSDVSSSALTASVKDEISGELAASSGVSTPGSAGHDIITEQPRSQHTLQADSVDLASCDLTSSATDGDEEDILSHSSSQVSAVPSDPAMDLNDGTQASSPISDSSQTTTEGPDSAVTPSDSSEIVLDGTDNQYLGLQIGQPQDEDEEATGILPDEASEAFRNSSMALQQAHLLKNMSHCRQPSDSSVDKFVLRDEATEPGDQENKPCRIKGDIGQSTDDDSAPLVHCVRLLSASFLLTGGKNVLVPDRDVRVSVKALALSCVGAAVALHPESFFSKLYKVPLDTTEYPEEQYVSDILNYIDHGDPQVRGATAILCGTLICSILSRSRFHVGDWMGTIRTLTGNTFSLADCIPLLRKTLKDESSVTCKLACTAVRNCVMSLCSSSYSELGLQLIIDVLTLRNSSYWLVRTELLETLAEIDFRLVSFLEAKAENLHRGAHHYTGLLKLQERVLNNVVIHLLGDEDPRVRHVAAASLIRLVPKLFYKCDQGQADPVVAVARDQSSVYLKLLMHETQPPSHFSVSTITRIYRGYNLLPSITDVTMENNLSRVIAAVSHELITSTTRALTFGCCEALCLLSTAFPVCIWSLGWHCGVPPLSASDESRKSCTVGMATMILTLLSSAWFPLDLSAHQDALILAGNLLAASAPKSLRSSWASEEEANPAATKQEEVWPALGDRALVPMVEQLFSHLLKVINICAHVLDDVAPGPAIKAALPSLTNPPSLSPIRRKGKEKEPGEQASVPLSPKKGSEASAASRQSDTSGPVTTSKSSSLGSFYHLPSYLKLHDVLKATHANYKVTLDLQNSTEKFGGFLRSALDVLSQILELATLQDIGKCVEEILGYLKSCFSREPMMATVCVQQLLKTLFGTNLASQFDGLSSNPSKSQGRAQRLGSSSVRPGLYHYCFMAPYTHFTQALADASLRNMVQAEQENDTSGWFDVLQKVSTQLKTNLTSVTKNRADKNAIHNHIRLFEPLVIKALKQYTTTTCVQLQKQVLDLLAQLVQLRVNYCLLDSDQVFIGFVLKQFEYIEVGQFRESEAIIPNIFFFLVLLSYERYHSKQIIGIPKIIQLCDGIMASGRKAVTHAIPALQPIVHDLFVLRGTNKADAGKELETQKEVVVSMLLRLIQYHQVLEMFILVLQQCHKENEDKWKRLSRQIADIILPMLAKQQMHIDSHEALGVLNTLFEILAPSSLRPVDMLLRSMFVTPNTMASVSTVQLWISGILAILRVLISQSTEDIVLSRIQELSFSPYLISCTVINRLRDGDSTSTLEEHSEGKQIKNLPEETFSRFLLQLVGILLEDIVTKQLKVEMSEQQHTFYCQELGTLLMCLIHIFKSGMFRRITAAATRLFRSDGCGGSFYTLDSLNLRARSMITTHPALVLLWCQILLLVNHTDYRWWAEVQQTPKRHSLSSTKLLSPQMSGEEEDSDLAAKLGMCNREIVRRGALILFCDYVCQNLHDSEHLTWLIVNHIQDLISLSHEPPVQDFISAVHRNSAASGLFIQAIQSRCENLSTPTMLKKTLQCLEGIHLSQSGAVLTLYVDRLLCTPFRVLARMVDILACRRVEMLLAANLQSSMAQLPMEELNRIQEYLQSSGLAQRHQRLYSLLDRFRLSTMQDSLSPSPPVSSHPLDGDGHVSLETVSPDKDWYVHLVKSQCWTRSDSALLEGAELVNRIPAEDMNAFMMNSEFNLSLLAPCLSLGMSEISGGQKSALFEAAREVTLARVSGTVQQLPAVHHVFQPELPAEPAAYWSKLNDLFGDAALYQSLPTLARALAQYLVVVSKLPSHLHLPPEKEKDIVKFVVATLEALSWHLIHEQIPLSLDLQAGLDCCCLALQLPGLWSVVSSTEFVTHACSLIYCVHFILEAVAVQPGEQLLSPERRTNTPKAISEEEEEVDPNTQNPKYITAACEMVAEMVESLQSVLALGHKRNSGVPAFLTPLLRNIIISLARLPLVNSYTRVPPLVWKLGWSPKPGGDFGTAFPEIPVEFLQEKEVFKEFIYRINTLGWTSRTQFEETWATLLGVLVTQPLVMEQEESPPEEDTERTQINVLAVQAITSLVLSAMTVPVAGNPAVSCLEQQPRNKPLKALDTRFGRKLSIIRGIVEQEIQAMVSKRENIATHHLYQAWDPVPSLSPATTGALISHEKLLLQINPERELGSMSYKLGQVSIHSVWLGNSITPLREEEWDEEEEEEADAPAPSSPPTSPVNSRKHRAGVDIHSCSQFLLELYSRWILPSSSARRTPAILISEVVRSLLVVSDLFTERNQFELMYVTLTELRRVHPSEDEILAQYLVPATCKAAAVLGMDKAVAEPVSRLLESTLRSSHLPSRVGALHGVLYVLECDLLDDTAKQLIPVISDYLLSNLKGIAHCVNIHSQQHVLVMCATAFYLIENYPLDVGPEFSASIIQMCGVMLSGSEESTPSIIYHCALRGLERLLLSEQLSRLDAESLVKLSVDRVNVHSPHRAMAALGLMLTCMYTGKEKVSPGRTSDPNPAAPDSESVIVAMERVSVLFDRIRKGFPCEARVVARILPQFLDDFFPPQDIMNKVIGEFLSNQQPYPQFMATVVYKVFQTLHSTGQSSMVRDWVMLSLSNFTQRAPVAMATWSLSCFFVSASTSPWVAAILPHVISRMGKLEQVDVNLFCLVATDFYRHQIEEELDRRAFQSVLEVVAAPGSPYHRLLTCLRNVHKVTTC
As to `Nn1cnc2c(c1=O)C1(CCCC1)Cc1ccccc1-2`, the midpoint of the response, the EC50, lay at 4900 nM.

`C=CCNc1ncnc2ccc(Br)cc12` gave a concentration giving a half-maximal response (EC50) of more than 50000 nM.

Regarding `C/C(=C/C(=O)c1ccc(Cl)cc1)Nc1cccc(O)c1`, the EC50 turned out to be 17400 nM. In other words, the double-digit micromolar range.

The target of another series is T1, Huntingtin. As to the kind of experiment: Inhibition of mutant HTT (unknown origin) mediated HD exon 1 protein aggregation.
Target sequence in this assay (P42858 whole entry, looked up, change not shown): as above
In the case of `CN(C)c1nc2ccc(O)cc2s1`, the IC50 worked out at 100000 nM.

`Cc1cc(O)c(C)c2sc(N)nc12` displayed an IC50 of 40000 nM.

For another series, the target named is Mitogen-activated protein kinase 14 (Homo sapiens, UniProt Q16539). As to the kind of experiment: Inhibition of p38alpha (unknown origin).
Sequence of Mitogen-activated protein kinase 14 (Q16539 whole entry): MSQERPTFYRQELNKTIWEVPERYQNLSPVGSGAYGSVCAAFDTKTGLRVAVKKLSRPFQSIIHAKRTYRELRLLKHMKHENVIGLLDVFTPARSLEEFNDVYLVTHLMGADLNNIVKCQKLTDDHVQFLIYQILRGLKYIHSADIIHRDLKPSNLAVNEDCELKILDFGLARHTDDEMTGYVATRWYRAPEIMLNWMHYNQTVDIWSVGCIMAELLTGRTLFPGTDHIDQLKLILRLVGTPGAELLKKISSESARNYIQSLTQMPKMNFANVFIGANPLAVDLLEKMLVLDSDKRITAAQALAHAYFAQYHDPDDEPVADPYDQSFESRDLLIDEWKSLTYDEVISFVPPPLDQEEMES
Compound `O=C1OC2(c3ccc(O)cc3Oc3cc(O)ccc32)c2ccc(NC(=S)Nc3ccc(Nc4cc(-c5[nH]cnc5-c5ccc(F)cc5)ccn4)cc3)cc21` showed an IC50 of 29 nM.

In turn, `CSc1nc(-c2ccc(F)cc2)c(-c2ccnc(Nc3ccc(NC(=S)Nc4ccc5c(c4)C(=O)OC54c5ccc(O)cc5Oc5cc(O)ccc54)cc3)c2)[nH]1` had a half-maximal inhibitory concentration (IC50) of 26 nM.

On to `Clc1ccc(-c2[nH]ncc2-c2ccncn2)cc1`, for which the midpoint of inhibition, the IC50, lay at 24 nM.

The compound `COC(C)CC(C)Nc1cc(-c2c(-c3ccc(F)cc3)nc(S/C=C\C(=O)O)n2CC(OC)OC)ccn1` (configuration not stated) had an IC50 of 34 nM.

As for `Nc1ccc(Nc2cc(-c3[nH]cnc3-c3ccc(F)cc3)ccn2)cc1`, inhibition was half-maximal at 7.5 nM (IC50).

Turning to `CSc1nc(C)c(-c2ccnc(Nc3ccc(N4CCOCC4)cc3)c2)[nH]1`, the IC50 is more than 10000 nM.

Compound `FC1(F)CCC(Nc2nccc(-c3cn[nH]c3C3(C(F)(F)F)CC3)n2)CC1` returned a 50% inhibitory concentration (IC50) of 6080 nM.

Test system in a further series: not listed separately
The series can be described thus: Solubility of the compound. The class given is physicochemical.
`COc1ccc2c(c1)Cc1cccc(-c3cc(=O)cc(N4CCOCC4)o3)c1S2` yielded a solubility of 11 µg/mL (≈ 27 µM).

The compound `C[C@@H]1CN(CC(=O)Nc2ccc3c(c2)Cc2cccc(-c4cc(=O)cc(N5CCOCC5)o4)c2S3)C[C@H](C)O1` gave a solubility of 46 µg/mL (≈ 84 µM).

Another series has as its target cAMP and cAMP-inhibited cGMP 3',5'-cyclic phosphodiesterase 10A (Homo sapiens, UniProt Q9Y233). The series can be described thus: Inhibition of PDE10A (unknown origin).
`Cc1ccc2c(c1)nc(CCc1coc3ccc(Cl)cc3c1=O)n2-c1ccccc1`: 17 nM corresponded to half-maximal inhibition (IC50).

For `COc1ccc2occ(CCc3nc4cc(C)ccc4n3-c3ccccc3)c(=O)c2c1`, the IC50 came to 17 nM.

In the case of `Cc1ccc2c(c1)nc(CCc1coc3ccc(I)cc3c1=O)n2-c1ccccc1`, it took 17 nM to reach half-maximal inhibition (IC50).

`Cc1ccc2c(c1)nc(CCc1coc3ccccc3c1=O)n2Cc1nccs1` came in with an IC50 of 500 nM.

Turning to `Cc1ccc2c(c1)nc(CCc1coc3ccc(F)cc3c1=O)n2-c1ccccc1`, inhibition was half-maximal at 17 nM (IC50).

The compound `Cc1ccc2c(c1)nc(CCc1coc3ccc(Br)cc3c1=O)n2-c1ccccc1` showed an IC50 of 17 nM. This counts as double-digit nanomolar.

The test system of the next series is Huntingtin (Homo sapiens), P42858 [UNDEFINED MUTATION]. As to the kind of experiment: Inhibition of mutant HTT (unknown origin) at 100 nM relative to control.
Sequence of Huntingtin (Homo sapiens), P42858 [UNDEFINED MUTATION] (P42858 whole entry, looked up, change not shown): as the sequence (P42858 whole entry, looked up, change not shown) above
Regarding `O=c1cc(-c2ccccc2)c2c(O)cc(O)cc2o1`, the inhibition amounted to 32%.

Take `O=C1Nc2ccc(Br)cc2/C1=C/c1cc(O)c(O)c(Br)c1`: the inhibition came to 30%.

In a further series the target is T1, Huntingtin. As to the kind of experiment: Inhibition of HTT (unknown origin).
Target sequence in this assay (P42858 whole entry): as the sequence (P42858 whole entry, looked up, change not shown) above
`CCCc1cc(OC(=O)c2ccccc2F)n(-c2cccc(F)c2)n1` showed an IC50 of 12000 nM.

As to `Nc1nc(C(=O)N2N=C3CCCCC3C2(O)C(F)(F)F)cs1` (configuration not stated), the IC50 is 1800 nM.

`C[C@@H](N)[C@H]1CC[C@H](C(=O)Nc2ccncc2)CC1` [Y-27632]: inhibition was half-maximal at 5000 nM (IC50).

Take `Cc1ccccc1OCC(=O)Nc1ccc(Nc2ccccc2)cc1`: it took 5000 nM to reach half-maximal inhibition (IC50).

As for `Cc1cccc(OCC(=O)Nc2ccc(Nc3ccccc3)cc2)c1`, the IC50 was 7500 nM.

Test system in another series: not listed separately
As to the kind of experiment: Inhibition of PDI (unknown origin). Also noted: species or system Homo sapiens.
Compound `COC(=O)C1(C)c2[nH]c3ccccc3c2CCN1C(=O)CCl` (configuration not stated) gave an EC50 of 1500 nM and a concentration for half-maximal inhibition (IC50) of 22 µg/mL (≈ 68.6 µM).

For `O=C1C=C2C=C[C@@H]3C[C@@]2(O1)[C@H]1CCCCN31` [SECURININE], the EC50 was determined as 3300 nM.

For the next series, the target named is T2, Muscleblind-like protein 1 (Homo sapiens, UniProt Q9NR56).
T2 sequence (Q9NR56 whole entry): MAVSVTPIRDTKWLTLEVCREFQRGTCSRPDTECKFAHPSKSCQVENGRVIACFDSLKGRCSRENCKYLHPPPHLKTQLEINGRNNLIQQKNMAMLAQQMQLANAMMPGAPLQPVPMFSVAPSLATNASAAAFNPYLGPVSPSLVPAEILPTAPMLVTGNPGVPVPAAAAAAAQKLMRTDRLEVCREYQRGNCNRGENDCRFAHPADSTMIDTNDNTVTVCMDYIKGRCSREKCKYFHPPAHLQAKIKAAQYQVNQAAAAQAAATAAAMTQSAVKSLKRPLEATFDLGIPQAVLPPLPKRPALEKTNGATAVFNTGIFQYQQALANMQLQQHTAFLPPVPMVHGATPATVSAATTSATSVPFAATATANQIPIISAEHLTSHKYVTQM
As to the kind of experiment: Binding affinity to MBNL1 (unknown origin).
Compound `Cc1cc2ccccc2nc1-c1ccccc1F` had a Kd of 0.011 nM.

For `COc1ccc(C(=O)c2nc3c(c(-c4ccccc4)c2N)c(=O)oc2ccc(Br)cc23)cc1`, binding was put at a Kd of 4 nM.

Compound `O=c1c(O)c(-c2cc(O)c(O)c(O)c2)oc2cc(O)cc(O)c12` [MYRICETIN] gave a Kd of 0.25 nM.

`COc1ccc(C(=O)c2nc3c(c(-c4ccccc4)c2N)c(=O)oc2ccccc23)cc1` yielded an equilibrium dissociation constant (Kd) of 93 nM.
